Structures can show the parent of a compound that is named as a salt.
Assays:
human recombinant DGK ξ = human recombinant DGK ξ (Homo sapiens (Human), UniProt Q13574); experiment: Evaluation of DGK ξ inhibitory effect (ADP-Glo Kinase Assay); format: biochemical
Description: Test Example 1: Evaluation of DGK ξ Inhibitory Effect
The inhibitory effect of a test compound on human recombinant DGK ξ (Carna Biosciences, Inc., 12-410-20N) was examined by the following method in which detection is performed with ADP-Glo™ Kinase Assay (Promega Corporation).
To a 384-well plate (Greiner Bio-One Co., Ltd.), 3 μL of a […] dissolved in an assay buffer (40 mM Tris-HCl pH 7.5, 10 mM MgCl2, 1 mM dithiothreitol (DTT) and 0.1 mg/mL bovine serum albumin (BSA)) (90 ng/mL) was added, and 3 μL of the test compound diluted with the same assay buffer was added so that an intended final concentration was obtained. The mixture was left standing at room temperature for 15 minutes, 3 μL of a substrate (150 μM 1-oleoyl-2-acetyl-sn-glycerol (Sigma-Aldrich Co. LLC.), 480 μM phosphatidylserine (Avanti Polar Lipids, Inc.) and 150 μM UltraPure-ATP (attached to ADP-Glo)) was then added, and the mixture was left standing at room temperature for 30 minutes to react. Thereafter, 3 μL of an ADP-Glo Reagent was added, and the mixture was left standing at room temperature for 40 minutes to stop the enzyme reaction. Further, 6 μL of a Kinase-Detection Reagent was added, the mixture was left standing at room temperature for 30 minutes, and the luminescence was then measured using ARVO X3 (PerkinElmer, Inc.). The half maximal inhibitory concentration (IC50) was calculated by Sigmoid-Emax model non-linear regression analysis, where the signal value in solvent treatment was set to 0% inhibition and the signal value without addition of the DGK ξ enzyme was set to 100% inhibition. […] In the table, Ex represents the number of each Example described below. Also, in the table, compound C (cpd. C) represents the test compound of the Example 199 described in the international publication WO 2008/054702.

Jurkat E6.1 cells = experiment: Evaluation of IL-2 production in human T cell leukemia cell line Jurkat E6.1 (TCR stimulation anti-CD3/anti-CD28); format: cell-based; conditions: concentration at which IL-2 increased to 10 times the solvent control, Jurkat E6.1, anti-CD3/anti-CD28, 24 hours, read-out: EC10fold
Description: Test Example 2: Evaluation of IL-2 Production in Human T Cell Leukemia Cell Line Jurkat E6.1
The effect of the test compound on the IL-2 production by T cell receptor (TCR) stimulation (anti-CD3/anti-CD28) in Jurkat E6.1 cells (ECACC, 88042803) was evaluated.
A 5 μg/mL anti-CD3 antibody (eBioscience, Inc., OKT3 clone) diluted with phosphate buffer saline (PBS) was added to a 96-well plate (Iwaki & Co., Ltd.) at 50 μL/well, and left standing at 4° C. for 12 hours or more to provide an anti-CD3 antibody-coated plate in advance. When the plate was used for experiments, the plate was washed with 200 μL of PBS once, an anti-CD28 antibody (eBioscience, Inc., 28.2 clone) diluted to a concentration of […] with a culture medium (RPMI1640 (Sigma-Aldrich Co. LLC.) containing 10% fetal bovine serum (Hyclone Laboratories, Inc.)) was then added at 10 μL/well, and the plate was used for assay as a culture plate for TCR stimulation.
Subsequently, the test compound was mixed with Jurkat E6.1 cells in such a manner that an intended final concentration was obtained, and the mixture was plated at 90 μL/well so that the number of cells per well was 1×10^5 (that is, finally the culture was performed at 1×10^5 cells/100 μL/well). For culture cell conditions, the culture was performed at 37° C. in the presence of 5% CO2 using RPMI1640 medium containing 10% fatal bovine serum.
After 24 hours, the culture supernatant was collected, and IL-2 was quantitatively determined using AlphaLISA human IL2 Immunoassay Research Kit (PerkinElmer, Inc.). The IL-2 measurement was performed under Alpha Screen standard setting conditions (the fluorescence intensity at 570 nm was measured with an excitation wavelength of 680 nm) using EnVision 2104-0010 and EnVision 2104-0020 (PerkinElmer, Inc.). The IL-2 quantitative value of the solvent treatment control was set to 1, and the test compound concentration at which the IL-2 quantitative value of the test compound treatment sample increased to 10 times the IL-2 quantitative value of the control (EC10fold) was calculated by inverse estimation with the aid of Sigmoid-Emax model non-linear regression analysis. […] In the table, Ex represents the number of each Example described below.

B16-F1 cells = experiment: Antitumor effect in syngeneic mouse model bearing mouse melanoma cell line B16-F1; format: in vivo; conditions: relative tumor growth inhibition, B16-F1, oral
Description: Test Example 4: Evaluation of Antitumor Effect in Syngeneic Mouse Model Bearing Mouse Melanoma Cell Line B16-F1
A cell suspension liquid prepared by suspending B16-F1 cells (ATCC, CRL-6323) in PBS at 2.0×10^6 cells/mL or 1.0×10^7 cells/mL was subcutaneously inoculated into 5-week-old female mice (C57BL/6J from Charles River Laboratories Japan, Inc.) in a volume of 50 μL. 5 days after the inoculation, the mice were grouped in such a manner that there was substantially no difference in tumor volume between groups, and administration of the test compound was started. The test was conducted with a solvent group and a test compound administration group each having 10 mice. 0.5% methylcellulose was orally administered to the solvent group, and 0.5% methylcellulose mixed with the test compound was orally administered to the test compound administration group. The administration was performed according to the regimen described in Table 4, and the tumor diameter and the body weight were measured twice a week. The following expression was used for calculation of the tumor volume. [tumor volume (mm^3)]=[tumor major diameter (mm)]×[tumor minor diameter (mm)]^2×0.5
The relative tumor growth inhibition (%) of the test compound was calculated, where the tumor volume of the test compound administration group immediately before the start of administration was set to 100% inhibition, and the tumor volume of the solvent group on the day after the last administration was set to 0% inhibition. […] In the table, Ex represents the number of each Example described below.

MC38 cells = experiment: Antitumor effect in syngeneic mouse model bearing mouse colon adenocarcinoma cell line MC38; format: in vivo; conditions: relative tumor growth inhibition, MC38, C57BL/6J mice, oral, twice a day day 1-10 and once on day 11
Description: Test Example 3: Evaluation of Antitumor Effect in Syngeneic Mouse Model Bearing Mouse Colon Adenocarcinoma Cell Line MC38
A cell suspension liquid prepared by suspending MC38 cells (supplied from National Cancer Institute) in PBS at 4.0×10^6 cells/mL was subcutaneously inoculated into 6-week-old female mice (C57BL/6J from Charles River Laboratories Japan, Inc.) in a volume of 50 μL. 4 days after the inoculation, the mice were grouped in such a manner that there was substantially no difference in tumor volume between groups, and administration of the test compound was started. The test was conducted with a solvent group and a test compound administration group each having 10 mice. 0.5% methylcellulose (Shin-Etsu Chemical Co., Ltd.) was orally administered to the solvent group, and 0.5% methylcellulose mixed with the test compound was orally administered to the test compound administration group. The administration was performed twice a day from day 1 to day 10 and once a day on day 11, and the tumor diameter and the body weight were measured twice a week. The following expression was used for calculation of the tumor volume. [tumor volume (mm^3)]=[tumor major diameter (mm)]×[tumor minor diameter (mm)]^2×0.5
The relative tumor growth inhibition (%) of the test compound was calculated, where the tumor volume of the test compound administration group immediately before the start of administration was set to 100% inhibition, and the tumor volume of the solvent group on the last day of administration was set to 0% inhibition. […] In the table, Ex represents the number of each Example described below.

[1] = 0.1 mg/kg, 1/day, 8 days, 1 × 10^5 cells inoculated

human recombinant DGK ξ, sequence (Q13574 whole entry): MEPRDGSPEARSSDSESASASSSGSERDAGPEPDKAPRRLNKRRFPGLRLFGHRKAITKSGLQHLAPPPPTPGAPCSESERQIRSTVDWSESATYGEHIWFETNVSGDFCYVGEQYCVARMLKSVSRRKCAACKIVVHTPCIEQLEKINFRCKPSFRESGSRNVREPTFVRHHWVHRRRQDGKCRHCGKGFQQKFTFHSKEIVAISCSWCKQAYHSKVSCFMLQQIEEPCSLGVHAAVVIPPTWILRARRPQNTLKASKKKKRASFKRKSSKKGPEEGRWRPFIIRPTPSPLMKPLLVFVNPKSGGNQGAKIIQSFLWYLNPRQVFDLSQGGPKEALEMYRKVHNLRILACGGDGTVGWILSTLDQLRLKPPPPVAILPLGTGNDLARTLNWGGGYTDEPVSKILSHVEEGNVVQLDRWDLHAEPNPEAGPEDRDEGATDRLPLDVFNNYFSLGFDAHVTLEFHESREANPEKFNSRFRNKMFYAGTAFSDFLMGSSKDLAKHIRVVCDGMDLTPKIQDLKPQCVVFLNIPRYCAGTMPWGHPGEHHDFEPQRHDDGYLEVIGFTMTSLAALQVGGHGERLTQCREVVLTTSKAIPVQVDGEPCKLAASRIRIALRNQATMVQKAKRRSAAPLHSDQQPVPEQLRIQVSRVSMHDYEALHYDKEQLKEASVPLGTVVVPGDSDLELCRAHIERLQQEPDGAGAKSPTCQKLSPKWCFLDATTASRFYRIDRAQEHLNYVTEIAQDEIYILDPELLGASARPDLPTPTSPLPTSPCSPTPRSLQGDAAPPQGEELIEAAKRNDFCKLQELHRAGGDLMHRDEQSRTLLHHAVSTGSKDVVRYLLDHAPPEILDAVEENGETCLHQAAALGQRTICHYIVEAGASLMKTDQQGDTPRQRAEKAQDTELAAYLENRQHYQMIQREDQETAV

IC50 (human recombinant DGK ξ) [nM] | EC50 (Jurkat E6.1 cells) [nM] | Structure (SMILES) | Antitumor effect (B16-F1 cells; 0.03 mg/kg, 1/day, 10 days, 1 × 10^5 cells inoculated) [% Inhibition] | Antitumor effect (MC38 cells; 5 mg/kg) [% Inhibition] | Antitumor effect (B16-F1 cells; 1.5 mg/kg, 2/day, 10 days, 5 × 10^5 cells inoculated) [% Inhibition] | Antitumor effect (MC38 cells; 4.7 mg/kg) [% Inhibition] | Antitumor effect (B16-F1 cells; [1]) [% Inhibition] | Antitumor effect (B16-F1 cells; 0.5 mg/kg, 2/day, 10 days, 5 × 10^5 cells inoculated) [% Inhibition] | Antitumor effect (B16-F1 cells; 0.3 mg/kg, 1/day, 10 days, 1 × 10^5 cells inoculated) [% Inhibition]
0.7 | 5 | CN(C)[C@@H]1CCN2CCN(c3c(NC(=O)c4csc(-c5ccnnc5)n4)ccc(Oc4ccccc4)c3C(F)(F)F)C[C@@H]12 [Example 80] | 30 | – | – | – | – | – | –
12 | 30 | NC[C@H]1CCCN1c1c(NC(=O)c2csc(-c3ccnnc3)n2)ccc(Oc2ccccc2)c1C(F)(F)F [Example 34] | – | 55 | 48 | – | – | – | –
8 | 173 | CNC[C@@H]1CCCN(c2c(NC(=O)c3csc(-c4ccnnc4)n3)ccc(Oc3ccccc3F)c2C(F)(F)F)C1.Cl [Example 10] | – | – | – | 60 | 42 | – | –
5 | 9 | NC[C@@H]1CCCN(c2c(NC(=O)c3csc(-c4ccnnc4)n3)ccc(Oc3ccccc3F)c2C(F)(F)F)C1 [Example 33] | – | 36 | – | – | – | – | –
19 | 32 | NC[C@@H]1CCCN(c2c(NC(=O)c3csc(-c4ccnnc4)n3)ccc(Oc3cccc(F)c3)c2C(F)(F)F)C1 [Example 11] | – | 63 | – | – | – | – | –
8 | 18 | NC[C@@H]1CCCN(c2c(NC(=O)c3csc(-c4ccnnc4)n3)ccc(Oc3ccccc3)c2C(F)(F)F)C1 [Example 9, N-{2-[(3S)-3-(aminomethyl)piperidin-1-yl]-4-phenoxy-3-(trifluoromethyl)phenyl}-2-(pyridazin-4-yl)-1,3-thiazole-4-carboxamide] | – | 64 | – | – | – | 36 | –
2 | 36 | COCCN1CCC2(CC1)CN(c1c(NC(=O)c3csc(-c4ccnnc4)n3)ccc(Oc3ccccc3)c1C(F)(F)F)CCO2 [Example 59, N-{2-[9-(2-methoxyethyl)-1-oxa-4,9-diazaspiro[5.5]undecan-4-yl]-4-phenoxy-3-(trifluoromethyl)phenyl}-2-(pyridazin-4-yl)-1,3-thiazole-4-carboxamide dihydrochloride] | – | – | – | – | 46 | – | –
5 | 27 | N[C@@H]1CCN2CCN(c3c(NC(=O)c4csc(-c5ccnnc5)n4)ccc(Oc4ccccc4)c3C(F)(F)F)C[C@@H]12 [Example 78, N-{2-[(8R,8aS)-8-aminohexahydropyrrolo[1,2-a]pyrazine-2(1H)-yl]-4-phenoxy-3-(trifluoromethyl)phenyl}-2-(pyridazin-4-yl)-1,3-thiazole-4-carboxamide] | – | – | – | – | – | – | 30

Reference: patent US12227517B2, “Pyridazinyl-thiazolecarboxamide compound” (Astellas Pharma Inc., priority 2019, dated 2025)
